US11976061B2, “Preparation of benzimidazolone derivatives as novel diacylglyceride O-acyltransferase 2 inhibitors” (Merck Sharp & Dohme LLC, priority 2020, dated 2024)
Like-named read-outs stand apart in the source and are kept apart here.

Molecular target: T1, human DGAT2 (hDGAT2) (Homo sapiens, UniProt Q96PD7)
T1 construct: made in house; host or cells: Sf-9 insect cells (baculovirus), membrane fraction
T1 sequence (Q96PD7 1-388): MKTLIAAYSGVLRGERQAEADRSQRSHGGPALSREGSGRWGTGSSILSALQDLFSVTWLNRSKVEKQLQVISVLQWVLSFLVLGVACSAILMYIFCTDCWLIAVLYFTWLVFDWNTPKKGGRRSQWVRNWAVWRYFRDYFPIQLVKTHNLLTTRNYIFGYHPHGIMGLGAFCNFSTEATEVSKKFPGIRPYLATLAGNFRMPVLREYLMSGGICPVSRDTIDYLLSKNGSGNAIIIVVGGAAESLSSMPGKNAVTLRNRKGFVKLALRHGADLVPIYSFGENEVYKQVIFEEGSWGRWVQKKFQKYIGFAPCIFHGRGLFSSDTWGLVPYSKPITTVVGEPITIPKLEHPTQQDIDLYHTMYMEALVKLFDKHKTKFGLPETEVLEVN
Assay: DGAT2 Enzymatic Activity Assay
Assay type: biochemical
Details: membrane prep of Sf-9 cells expressing hDGAT2, 25 μM diolein, 5 μM 13C oleoyl-CoA, 13C18-triolein by LC/MS/MS
How it was run: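 Membranes from Sf-9 cells expressing untagged human DGAT2 (8 ng/μL) incubated at rt in 100 mM Tris·Cl pH 7.0, 20 mM MgCl2, 5% ethanol with 25 μM diolein and 5 μM 13C oleoyl-CoA. 13C18-triolein product quantified by LC/MS/MS against 13C21-triolein internal standard; IC50 by 4-parameter fit.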

IC50 (read-out: DGAT2 IC50) [nM]	IC50 (read-out: Human DGAT2 IC50) [nM]	Structure (SMILES)
> 9990	–	CCn1cc(CNC(=O)c2ccc3c(c2)n(C(C)C)c(=O)n3-c2cccc(OC(F)F)c2)cn1 [Example 63, 1-(3-(difluoromethoxy)phenyl)-N-((1-ethyl-1H-pyrazol-4-yl)methyl)-3-isopropyl-2-oxo-2,3-dihydro-1H-benzo[d]imidazole-5-carboxamide]
148	–	CC(C)n1c(=O)n(-c2cc(OC(F)F)ccc2F)c2ncc(C(=O)NC3(C)CS(=O)(=O)C3)cc21 [Example 102, 3-[5-(difluoromethoxy)-2-fluoro-phenyl]-1-isopropyl-N-(3-methyl-1,1-dioxo-thietan-3-yl)-2-oxo-imidazo[4,5-b]pyridine-6-carboxamide]
355	–	CC(C)n1c(=O)n(-c2cccc(OC(F)(F)F)c2)c2ncc(C(=O)NC3(C)CS(=O)(=O)C3)cc21 [Example 91, 1-isopropyl-N-(3-methyl-1,1-dioxo-thietan-3-yl)-2-oxo-3-[3-(trifluoromethoxy)phenyl]imidazo[4,5-b]pyridine-6-carboxamide]
> 10000	–	CC(C)n1c(=O)n(-c2cccc(OC(F)F)c2)c2ccc(C(=O)NC(C)C(C)(C)O)cc21 (stereo not drawn) [Example 27, 1-[3-(difluoromethoxy)phenyl]-N-(2-hydroxy-1,2-dimethyl-propyl)-3-isopropyl-2-oxo-benzimidazole-5-carboxamide]
> 9990	–	CC(C)n1c(=O)n(-c2cccc(F)c2)c2ccc(C(=O)NC3(C)CCS(=O)(=O)CC3)cc21 [Example 50, 1-(3-fluorophenyl)-3-isopropyl-N-(4-methyl-1,1-dioxidotetrahydro-2H-thiopyran-4-yl)-2-oxo-2,3-dihydro-1H-benzo[d]imidazole-5-carboxamide]
–	6.7	CCOc1cc(-n2c(=O)n(C(C)C)c3cc(C(=O)NC4(C)CCS(=O)(=O)CC4)ccc32)c(F)cn1 [Example 15, 1-(2-Ethoxy-5-fluoropyridin-4-yl)-3-isopropyl-N-(4-methyl-1,1-dioxidotetrahydro-2H-thiopyran-4-yl)-2-oxo-2,3-dihydro-1H-benzo[d]imidazole-5-carboxamide]
288	–	CC(C)n1c(=O)n(-c2cccc(OC(F)F)c2)c2ncc(C(=O)N[C@@]3(C)CCS(=O)(=O)C3)cc21 [Example 89, 3-[3-(difluoromethoxy)phenyl]-1-isopropyl-N-[(3S)-3-methyl-1,1-dioxo-thiolan-3-yl]-2-oxo-imidazo[4,5-b]pyridine-6-carboxamide]
193	–	CC(C)n1c(=O)n(-c2cccc(OC(F)F)c2)c2ncc(C(=O)N[C@]3(C)CCS(=O)(=O)C3)cc21 [Example 90, 3-[3-(difluoromethoxy)phenyl]-1-isopropyl-N-[(3R)-3-methyl-1,1-dioxo-thiolan-3-yl]-2-oxo-imidazo[4,5-b]pyridine-6-carboxamide]
73	–	CC(C)n1c(=O)n(-c2cc(OC(F)F)ncc2F)c2cc(F)c(C(=O)NC3(C)CS(=O)(=O)C3)cc21 [Example 123, 1-(2-(difluoromethoxy)-5-fluoropyridin-4-yl)-6-fluoro-3-isopropyl-N-(3-methyl-1,1-dioxidothietan-3-yl)-2-oxo-2,3-dihydro-1H-benzo[d]imidazole-5-carboxamide]
52	–	CCOc1cccc(-n2c(=O)n(C(C)C)c3cc(C(=O)NC4(C)CCS(=O)(=O)CC4)cnc32)c1 [Example 99, 3-(3-ethoxyphenyl)-1-isopropyl-N-(4-methyl-1,1-dioxo-thian-4-yl)-2-oxo-imidazo[4,5-b]pyridine-6-carboxamide]
7	–	CC(C)n1c(=O)n(-c2cccc(OC(F)F)c2)c2c(F)cc(C(=O)N[C@]3(C)CCS(=O)(=O)C3)cc21 [Example 110, 1-[3-(difluoromethoxy)phenyl]-7-fluoro-3-isopropyl-N-[(3R)-3-methyl-1,1-dioxo-thiolan-3-yl]-2-oxo-benzimidazole-5-carboxamide]

Second part, the compound before the results:

Structure (SMILES)	IC50 (read-out: DGAT2 IC50) [nM]	IC50 (read-out: Human DGAT2 IC50) [nM]
CC(C)n1c(=O)n(-c2cccc(OC(F)F)c2)c2ccc(C(=O)N[C@]3(C)CCS(=O)(=O)C3)c(F)c21 [Example 125, (R)-1-(3-(Difluoromethoxy)phenyl)-4-fluoro-3-isopropyl-N-(3-methyl-1,1-dioxidotetrahydrothiophen-3-yl)-2-oxo-2,3-dihydro-1H-benzo[d]imidazole-5-carboxamide]	203	–
CC(C)n1c(=O)n(-c2cc(OC(F)F)ncc2F)c2cc(F)c(C(=O)NC3(C)CS(=O)(=O)C3)cc21 [Example 24, 1-(2-(Difluoromethoxy)-5-fluoropyridin-4-yl)-6-fluoro-3-isopropyl-N-(3-methyl-1,1-dioxidothietan-3-yl)-2-oxo-2,3-dihydro-1H-benzo[d]imidazole-5-carboxamide]	–	66
CCOc1cc(-n2c(=O)n(C(C)C(C)(C)O)c3cc(C(=O)NC4(C)CCS(=O)(=O)CC4)ccc32)c(F)cn1 (single isomer, unassigned) [Example 69b, 1-(2-ethoxy-5-fluoropyridin-4-yl)-3-(3-hydroxy-3-methylbutan-2-yl)-N-(4-methyl-1,1-dioxidotetrahydro-2H-thiopyran-4-yl)-2-oxo-2,3-dihydro-1H-benzo[d]imidazole-5-carboxamide]	3.9	–
CC(C)n1c(=O)n(-c2cccc(OC(F)F)c2)c2cc(Cl)c(C(=O)NC3(C)CCS(=O)(=O)CC3)cc21 [Example 127]	–	112
CC1(NC(=O)c2ccc3c(c2)n(Cc2ccc(F)cc2)c(=O)n3-c2cccc(OC(F)F)c2)CCS(=O)(=O)CC1 [Example 59, 1-(3-(difluoromethoxy)phenyl)-3-(4-fluorobenzyl)-N-(4-methyl-1,1-dioxidotetrahydro-2H-thiopyran-4-yl)-2-oxo-2,3-dihydro-1H-benzo[d]imidazole-5-carboxamide]	38	–
CC(n1c(=O)n(-c2cc(OC(F)F)ccc2F)c2ccc(C(=O)NC3(C)CS(=O)(=O)C3)cc21)C(C)(C)O (single isomer, unassigned) [EX-65a, 1-(5-(difluoromethoxy)-2-fluorophenyl)-3-(3-hydroxy-3-methylbutan-2-yl)-N-(3-methyl-1,1-dioxidothietan-3-yl)-2-oxo-2,3-dihydro-1H-benzo[d]imidazole-5-carboxamide]	–	53
CC(n1c(=O)n(-c2cc(OC(F)F)ccc2F)c2ccc(C(=O)NC3(C)CCS(=O)(=O)CC3)cc21)C(C)(C)O (single isomer, unassigned) [Example 66b, 1-(5-(difluoromethoxy)-2-fluorophenyl)-3-(3-hydroxy-3-methylbutan-2-yl)-N-(4-methyl-1,1-dioxidotetrahydro-2H-thiopyran-4-yl)-2-oxo-2,3-dihydro-1H-benzo[d]imidazole-5-carboxamide]	16.9	–
CC(C(F)F)n1c(=O)n(-c2cccc(OC(F)F)c2)c2ccc(C(=O)NC3(C)CCS(=O)(=O)CC3)cc21 (single isomer, unassigned) [Example 45a, 1-(3-(Difluoromethoxy)phenyl)-3-(1,1-difluoropropan-2-yl)-N-(4-methyl-1,1-dioxidotetrahydro-2H-thiopyran-4-yl)-2-oxo-2,3-dihydro-1H-benzo[d]imidazole-5-carboxamide]	12	–
CC(C)n1c(=O)n(-c2cccc(OC(F)F)c2)c2ncc(C(=O)NC3(C)CS(=O)(=O)C3)cc21 [Example 104, 3-[3-(difluoromethoxy)phenyl]-1-isopropyl-N-(3-methyl-1,1-dioxo-thietan-3-yl)-2-oxo-imidazo[4,5-b]pyridine-6-carboxamide]	94	–
CC(C)n1c(=O)n(-c2cc(OCC(F)F)ncc2F)c2cc(F)c(C(=O)NC3(C)CCS(=O)(=O)CC3)cc21 [Example 115, 1-(2-(2,2-difluoroethoxy)-5-fluoropyridin-4-yl)-6-fluoro-3-isopropyl-N-(4-methyl-1,1-dioxidotetrahydro-2H-thiopyran-4-yl)-2-oxo-2,3-dihydro-1H-benzo[d]imidazole-5-carboxamide]	–	4.1
CCOc1cccc(-n2c(=O)n(C(C)C)c3cc(C(=O)N[C@]4(C)CCS(=O)(=O)C4)cnc32)c1 [Example 98, 3-(3-ethoxyphenyl)-1-isopropyl-N-[(3R)-3-methyl-1,1-dioxo-thiolan-3-yl]-2-oxo-imidazo[4,5-b]pyridine-6-carboxamide]	102	–
CC(C(N)=O)n1c(=O)n(-c2cccc(OC(F)F)c2)c2ccc(C(=O)NC3(C)CCS(=O)(=O)CC3)cc21 (single isomer, unassigned) [EX-85b, 3-(1-amino-1-oxopropan-2-yl)-1-(3-(difluoromethoxy)phenyl)-N-(4-methyl-1,1-dioxidotetrahydro-2H-thiopyran-4-yl)-2-oxo-2,3-dihydro-1H-benzo[d]imidazole-5-carboxamide]	–	1750
CC(C)n1c(=O)n(-c2cccc(OCC(F)F)c2)c2ccc(C(=O)NC3(C)CCS(=O)(=O)CC3)cc21 [Example 11, 1-[3-(2,2-difluoroethoxy)phenyl]-3-isopropyl-N-(4-methyl-1,1-dioxo-thian-4-yl)-2-oxo-benzimidazole-5-carboxamide]	–	15
